What was measured:
Hb-AGE = conditions: diabetic patients treated for 28 days; cited from earlier work
mAb 4G9 = assay: competition ELISA: browned compounds compete with plate-bound BSA-AGE for mAb 4G9; format: binding, murine; conditions: concentration based on the original proteins or peptides
Description: Production of AGE proteins. All proteins and peptides were browned with glucose, ribose or glucose 6-phosphate in 300 mM sodium phosphate buffer, pH 7.4, for 8-12 weeks at 37° C. The control proteins were treated the same way except the sugars were omitted.
The competition ELISA was performed by pre-coating microtiter plates with BSA-AGE and blocking with Assay Buffer. The plates was washed and mAb 4G9 and increasing concentrations of the competitors listed in Table 1 were added and simultaneously incubated for 1 hr at 37° C. The unbound materials were removed by extensive washing and the bound mAb was detected with alkaline phosphatase labeled anti-mouse antibodies similar to direct ELISA. All washes were in TBS-T wash solution: all incubations proceeded for 1 hr at 37° C.

[1] = protein or peptide browned with ribose

IC50 (mAb 4G9; protein or peptide browned with glucose) [µM] | IC50 (mAb 4G9; [1]) [µM] | Molecule | levels of Hb-AGE at the end of the treatment period (Hb-AGE)
– | – | N=C(N)NN [aminoguanidine] | significantly decreased
250 | 50 | Arg-lys | –
– | 200 | Hemoglobin | –
